In PMC10076467 (EJNMMI Research, 2023):
Where “and” joins values, the source holds several entries; their conditions need not be identical. Equal entries are not always repeated.

Legend:
[1] = LogD7.4 measurement (1-octanol / sodium phosphate buffer); type: physicochemical
Experimental: The radiochemical purity of the radioligand was measured via HPLC. […] Aliquots (1 mL) were distributed to each of eight borosilicate disposable culture tubes (13 × 100 mm). Six tubes were extracted with buffer pre-treated 1-octanol (1 mL) by vortexing for one minute and then centrifuged for one minute. The organic and aqueous phases were separated. Samples of organic phase (50 µL) and aqueous phase (50 µL) were taken and separately measured for radioactivity. The remaining two tubes containing radioactivity in buffer were analyzed with HPLC to check for any decrease in radiochemical purity over the time-span of the experiment. […] LogD was calculated as log[(cpm/mL for 1-octanol phase)/(cpm/mL for aqueous phase)] using Pallas for Windows software (CompuDrug Inc.).

[2] = pKa measurement (cyclohexane / sodium phosphate buffers); type: physicochemical; details: distribution between cyclohexane and sodium phosphate buffers
[3] = Radiochemical stability of formulated radioligand; type: physicochemical
Excerpt: However, the fraction collected from HPLC contains 0.1% TFA. […] Protection with ascorbic acid was therefore used immediately after HPLC radioligand purification to maintain weakly acidic and reducing conditions.

[4] = Experimental: For Brain. The brain (1.7 g) was homogenized in twice its volume of cold saline. […] An aliquot (450 µL) was then placed in acetonitrile (720 µL) along with carrier NR2B-Me (5 µg) and mixed well. Water (100 µL) was then added, mixed well, measured for radioactivity, and centrifuged at 10,000 g for one minute. The supernatant was analyzed via HPLC. The precipitate was measured for radioactivity to determine the recovery of radioactivity into the supernatant that had been injected onto HPLC.
For Whole Blood. […] The sample was mixed well and incubated at 37 °C for one hour. Water (300 µL) was added to lyse open all cells. An aliquot (450 µL) was then removed to a new vial, and acetonitrile (720 µL) was added. The mixture was mixed well, measured for radioactivity, and centrifuged at 10,000 g for one minute. The supernatant was analyzed via HPLC as described for brain.
For Plasma. Plasma was separated from blood cells. […] The mixture was measured for radioactivity. An aliquot (450 µL) was then placed in acetonitrile (720 µL) along with carrier NR2B-Me (5 µg) and mixed well. Water (100 µL) was then added, mixed well, measured for radioactivity, and centrifuged at 10,000 g for one minute. The supernatant was analyzed with HPLC as described for brain. The precipitate was measured for radioactivity to determine radioactivity recovery into the supernatant that had been injected onto HPLC.
(§1) The SUV due to radioligand or radiometabolite only was calculated by multiplying the total SUV of the tissue by the fraction of the radioligand or radiometabolite measured with HPLC (Supplementary Table S4).

[5] = remark: listed apart in the source
Experimental: Rats were anesthetized with 1.5% isoflurane in oxygen. […] The rats were then immediately sacrificed by decapitation, and their brains and myocardial tissues were excised.
Plasma was separated from blood cells, and a sample (50 µL) was measured for radioactivity. An aliquot (450 µL) was placed in acetonitrile (720 µL) along with carrier NR2B-Me (5 µg) and mixed well. Water (100 µL) was added, mixed well, measured for radioactivity, and centrifuged at 10,000 g for one minute. The supernatant was analyzed with radio-HPLC and the precipitate measured for radioactivity, as described for brain.
as §1

[6] = room temperature, at least 30 min
Excerpt: Subsequent processing and analysis were as described for rat ex vivo experiments in the main text.

[7] = n = 3
Experimental: Human Plasma Free Fraction. Plasma free fraction (fp) was measured as described previously (6). […] If necessary, samples were left to decay to within the optimal radioactivity range for accurate γ-counter measurement.

GluN2B receptors [8] = biological target: T1, GluN2B receptors (Rattus norvegicus, UniProt P35439+Q00960); assay: PET displacement / pre-blocking of ^11C-NR2B-Me radioligands with Ro-25-6981, Lassen plots; type: in vivo; details: rat; Ro-25-6981 0.25 mg/kg i.v. 10 min before radioligand
T1 construct: from tissue; host or cells: brain of living male rats (PET imaging)
Experimental: (§2) For radioligand injection, a polyethylene catheter (PE 10) was inserted into the penile vein of a male rat and then secured with tissue adhesive and tape. […] Body temperature was monitored with a rectal probe. All PET scans were performed on a microPET Focus 220 scanner (Siemens Medical Solutions) (7,8). Data were acquired in listmode and reconstructed with Fourier rebinning + 2D filtered backprojection. A transmission scan was acquired before radioligand injection for attenuation correction. Dynamic scanning began at the time of a one-minute intravenous bolus injection of the radioligand under study (55 ± 19 MBq; volume 0.2 to 1.0 mL). The injected mass dose was 3 ± 1 nmol/kg. Challenge agents were administered intravenously 10 minutes before the radioligand for pre-blocking studies or 10 minutes after the radioligand for displacement studies. Tomographic images were analyzed with pixel-wise modeling computer software (PMOD 2.6; PMOD Group). Regions-of-interest in the brain were delineated, and time-activity curves calculated as SUV versus time.
(§3) Pre-blocking and displacement experiments were performed to assess radioligand target engagement and radioligand selectivity in vivo. […] Areas-under the curve (AUCs) from time-activity curves between 20 and 90 minutes were calculated for each radioligand. AUCs obtained from the same production of radioligand were scaled to the value (or mean value) for the baseline experiment to give relative values (relative AUC20–90 min). […] Where data permitted, the dose-response curves were fitted with GraphPad Prism software (version 8.1.1; GraphPad) to estimate the ED50 values. A dummy value of 100 pmol per kg body weight was used for zero concentration of the challenge agent in the construction of these dose-response curves. Numerical data are expressed as mean ± S.D. for n>2, or as mean and range for n = 2.

GluN2B receptors [9] = biological target: T1, GluN2B receptors; assay: ED50 for pre-blocking of GluN2B radioligand uptake in rat whole brain (PET); type: in vivo; details: rat; read-out: ED50 in rat whole brain in vivo ^11C-(+)-NR2B-Me
Experimental: as §2, §3

GluN2B = biological target: T2, GluN2B (Homo sapiens, UniProt Q05586+Q13224); details: cited from earlier work
T2 construct: expressed in transfected cells; host or cells: transiently transfected mouse fibroblast cells (membrane homogenate)

GluN2B receptors [10] = biological target: T1, GluN2B receptors; design: method as in PMID 31924728; details: pre-blocking, radioligand ^11C-(S)-NR2B-SMe; cited from earlier work
guinea pig σ1 receptor = guinea pig σ1 receptor (Cavia porcellus, UniProt Q60492); assay: PDSP σ1 receptor binding; details: 10 μM; read-out: inhibition of reference radioligand binding, guinea pig σ1 receptor
Excerpt: (§4) NR2B-Me was submitted to the PDSP for assessment of binding affinity against a wide range of other receptors and binding sites. A full listing of these receptors and binding sites is given in the Supplemental Results. Detailed assay protocols are available at the PDSP website (http://pdsp.cwru.edu).
(§5) Assessment of Binding Affinity against a Wide Range of Other Receptors and Binding Sites. NR2B-Me was submitted to the National Institute of Mental Health Psychoactive Drug Screening program (NIMH-PDSP) to assess binding affinity against a wide range of other receptors and binding sites (5-HT1A, 1B, 1D, 1E, 2A, 2A agonist, 2A antagonist, 2B, 2B agonist, 2B antagonist, 2C, 2C agonist, 2C antagonist, 3, 5A, 6, 7; α2; α2β2, α2β2, α3β2, α3β4, α4β2, α4β4, α7; α1A, 1A agonist, 1B, 1B agonist, 1B antagonist, 2A-2C; AMPA*; β1-3; BZPa1-3, a5, a6, rat brain site; Ca^2+-Channel; CB1-2, D1, 2, 2 agonist, 2 antagonist, 3-5; DAT; DOR; EP1-4; GABAA,B; GPR40,41,43; H1-4; HERG; IMIDAZOLINE 1; KA-R*; KOR, KORagonist, antagonist; M1, 1 agonist, 1 antagonist, 2, 3, 3 agonist, 3 antagonist, 4, 5, 5 agonist, 5 antagonist; MDR 1; mGluR1A,2,4,5,5-cloned,5-rat brain,6,8; MOR; Na^+-Channel; NET; NK1, 1 antagonist, 2, 2 antagonist, 3, 3 antagonist; NMDA; NMDA/MK801; NT-1; OXYTOCINagonist, antagonist; PAR1agonist, antagonist; PCP; PKCA, B, D, E, G; PTHR2, Purinergicagonist, antagonist; SET; σ1,2; V1, 1 agonist, 1 antagonist, 2, 2 agonist, 2 antagonist, 3, 3 agonist, 3 antagonist, VMAT1, 2).

PC12 cell σ2 receptors = biological target: T3, PC12 cell σ2 receptors (Rattus norvegicus, UniProt Q5U3Y7); assay: PDSP σ2 receptor binding; details: at 10 µM (Table 1 footnote: 10 µmol), PC12 cell σ2
T3 construct: endogenous in cells; host or cells: PC12 cells
T3 sequence (Q5U3Y7 1-176): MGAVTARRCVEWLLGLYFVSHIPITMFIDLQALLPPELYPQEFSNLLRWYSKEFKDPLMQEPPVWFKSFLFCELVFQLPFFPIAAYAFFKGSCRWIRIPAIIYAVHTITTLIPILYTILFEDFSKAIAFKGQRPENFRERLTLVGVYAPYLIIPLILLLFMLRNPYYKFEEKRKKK
Excerpt: as §4, §5

calcium channel = assay: PDSP pharmacological screen, calcium channel; type: binding; details: 10 μM
Excerpt: as §4
(§6) Assessment of Binding Affinity against a Wide Range of Other Receptors and Binding Sites. […]

hERG channel = hERG channel (Homo sapiens, UniProt Q12809); assay: PDSP pharmacological screen, hERG channel; details: read-out: inhibition of reference radioligand binding, hERG channel
Excerpt: as §4, §6

[11] = test system: numerous binding sites and receptors; assay: PDSP pharmacological screen, other receptors and binding sites; details: 10 μM; not greater than 10% for sites other than calcium channel, hERG, σ1, σ2
Excerpt: as §4, §6

[12] = rat, ex vivo 30 min after intravenous injection

T1 sequence (Q00960 27-1482, other chains not shown): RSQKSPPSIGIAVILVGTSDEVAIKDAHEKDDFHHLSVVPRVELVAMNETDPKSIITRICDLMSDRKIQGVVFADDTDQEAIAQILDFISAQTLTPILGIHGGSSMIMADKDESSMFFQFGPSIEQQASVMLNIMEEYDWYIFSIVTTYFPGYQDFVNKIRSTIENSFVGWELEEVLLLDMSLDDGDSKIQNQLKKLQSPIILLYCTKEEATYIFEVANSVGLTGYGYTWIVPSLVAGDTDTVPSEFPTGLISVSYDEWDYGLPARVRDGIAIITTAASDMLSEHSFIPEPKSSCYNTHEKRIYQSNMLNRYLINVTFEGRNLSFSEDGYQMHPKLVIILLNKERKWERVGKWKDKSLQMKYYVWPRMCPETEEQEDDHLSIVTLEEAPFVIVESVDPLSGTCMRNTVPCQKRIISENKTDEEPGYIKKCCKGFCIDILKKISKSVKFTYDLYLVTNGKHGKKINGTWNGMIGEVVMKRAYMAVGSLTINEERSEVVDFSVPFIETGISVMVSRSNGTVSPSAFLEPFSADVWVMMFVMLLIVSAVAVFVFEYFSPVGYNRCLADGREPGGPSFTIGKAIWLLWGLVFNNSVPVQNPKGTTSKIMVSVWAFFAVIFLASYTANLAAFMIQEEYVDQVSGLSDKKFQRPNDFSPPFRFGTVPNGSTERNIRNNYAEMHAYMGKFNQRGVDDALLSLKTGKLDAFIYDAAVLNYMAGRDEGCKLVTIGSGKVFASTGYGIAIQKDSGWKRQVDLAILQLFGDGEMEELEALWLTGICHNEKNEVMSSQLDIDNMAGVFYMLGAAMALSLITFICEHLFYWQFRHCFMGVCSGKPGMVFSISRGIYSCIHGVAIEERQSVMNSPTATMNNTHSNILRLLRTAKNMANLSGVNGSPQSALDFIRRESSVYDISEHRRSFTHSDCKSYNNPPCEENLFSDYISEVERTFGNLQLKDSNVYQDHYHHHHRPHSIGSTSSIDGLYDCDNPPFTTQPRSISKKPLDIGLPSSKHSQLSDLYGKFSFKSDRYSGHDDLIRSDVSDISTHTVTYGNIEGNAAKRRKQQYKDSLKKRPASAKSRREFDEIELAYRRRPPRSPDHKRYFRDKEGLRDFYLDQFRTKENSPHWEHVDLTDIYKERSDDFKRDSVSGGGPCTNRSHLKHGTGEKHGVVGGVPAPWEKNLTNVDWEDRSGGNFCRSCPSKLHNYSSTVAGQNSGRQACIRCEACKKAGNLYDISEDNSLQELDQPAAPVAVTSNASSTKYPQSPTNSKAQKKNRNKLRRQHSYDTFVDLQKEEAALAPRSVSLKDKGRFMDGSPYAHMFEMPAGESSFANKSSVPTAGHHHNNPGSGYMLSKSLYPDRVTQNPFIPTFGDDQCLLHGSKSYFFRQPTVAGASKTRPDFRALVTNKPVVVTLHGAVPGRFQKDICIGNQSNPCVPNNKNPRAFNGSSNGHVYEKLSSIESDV
T2 sequence (Q13224 27-1484, species assumed, other chains not shown): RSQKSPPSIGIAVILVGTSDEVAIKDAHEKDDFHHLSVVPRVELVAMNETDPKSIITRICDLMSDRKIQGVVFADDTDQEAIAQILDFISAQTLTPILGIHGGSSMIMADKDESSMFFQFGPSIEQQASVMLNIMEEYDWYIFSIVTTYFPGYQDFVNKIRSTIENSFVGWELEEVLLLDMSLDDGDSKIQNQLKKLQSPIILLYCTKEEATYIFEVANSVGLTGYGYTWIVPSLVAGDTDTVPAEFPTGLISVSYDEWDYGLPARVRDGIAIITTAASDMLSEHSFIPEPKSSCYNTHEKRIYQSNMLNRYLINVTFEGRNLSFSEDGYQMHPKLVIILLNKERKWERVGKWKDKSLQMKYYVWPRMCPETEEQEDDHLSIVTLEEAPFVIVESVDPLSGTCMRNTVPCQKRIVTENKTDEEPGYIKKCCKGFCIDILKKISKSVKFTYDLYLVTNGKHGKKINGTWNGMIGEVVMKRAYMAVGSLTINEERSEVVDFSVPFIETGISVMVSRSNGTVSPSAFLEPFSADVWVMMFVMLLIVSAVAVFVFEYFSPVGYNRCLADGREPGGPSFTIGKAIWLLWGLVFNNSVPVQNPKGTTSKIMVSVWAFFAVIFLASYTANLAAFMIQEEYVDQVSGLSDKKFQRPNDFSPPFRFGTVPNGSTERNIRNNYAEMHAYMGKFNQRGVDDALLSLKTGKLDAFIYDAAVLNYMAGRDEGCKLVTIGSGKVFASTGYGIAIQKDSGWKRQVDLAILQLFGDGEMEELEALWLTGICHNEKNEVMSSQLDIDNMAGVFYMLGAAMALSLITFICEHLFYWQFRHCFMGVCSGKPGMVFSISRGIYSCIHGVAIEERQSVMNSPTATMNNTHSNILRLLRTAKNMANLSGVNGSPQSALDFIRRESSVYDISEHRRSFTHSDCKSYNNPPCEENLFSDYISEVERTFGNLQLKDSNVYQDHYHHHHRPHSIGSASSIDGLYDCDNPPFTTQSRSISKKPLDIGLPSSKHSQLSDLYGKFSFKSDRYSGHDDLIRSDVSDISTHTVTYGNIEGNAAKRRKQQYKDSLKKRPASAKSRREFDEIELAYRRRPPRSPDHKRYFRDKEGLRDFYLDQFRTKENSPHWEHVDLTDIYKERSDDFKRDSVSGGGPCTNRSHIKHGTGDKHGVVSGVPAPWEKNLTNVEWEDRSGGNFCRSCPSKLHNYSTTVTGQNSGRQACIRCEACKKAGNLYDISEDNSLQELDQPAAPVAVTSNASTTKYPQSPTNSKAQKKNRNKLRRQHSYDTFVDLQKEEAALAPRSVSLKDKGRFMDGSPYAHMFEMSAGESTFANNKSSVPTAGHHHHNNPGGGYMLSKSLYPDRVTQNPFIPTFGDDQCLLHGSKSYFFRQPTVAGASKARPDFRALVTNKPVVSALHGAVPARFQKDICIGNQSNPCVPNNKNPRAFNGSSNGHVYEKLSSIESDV
guinea pig σ1 receptor, sequence (Q60492 whole entry): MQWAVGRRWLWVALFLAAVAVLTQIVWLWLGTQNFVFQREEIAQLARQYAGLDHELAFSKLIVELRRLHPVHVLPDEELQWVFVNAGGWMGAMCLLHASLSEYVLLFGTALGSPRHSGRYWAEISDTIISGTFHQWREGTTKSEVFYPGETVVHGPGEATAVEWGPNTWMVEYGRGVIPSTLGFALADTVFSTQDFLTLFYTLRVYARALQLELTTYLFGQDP
hERG channel, sequence (Q12809 whole entry): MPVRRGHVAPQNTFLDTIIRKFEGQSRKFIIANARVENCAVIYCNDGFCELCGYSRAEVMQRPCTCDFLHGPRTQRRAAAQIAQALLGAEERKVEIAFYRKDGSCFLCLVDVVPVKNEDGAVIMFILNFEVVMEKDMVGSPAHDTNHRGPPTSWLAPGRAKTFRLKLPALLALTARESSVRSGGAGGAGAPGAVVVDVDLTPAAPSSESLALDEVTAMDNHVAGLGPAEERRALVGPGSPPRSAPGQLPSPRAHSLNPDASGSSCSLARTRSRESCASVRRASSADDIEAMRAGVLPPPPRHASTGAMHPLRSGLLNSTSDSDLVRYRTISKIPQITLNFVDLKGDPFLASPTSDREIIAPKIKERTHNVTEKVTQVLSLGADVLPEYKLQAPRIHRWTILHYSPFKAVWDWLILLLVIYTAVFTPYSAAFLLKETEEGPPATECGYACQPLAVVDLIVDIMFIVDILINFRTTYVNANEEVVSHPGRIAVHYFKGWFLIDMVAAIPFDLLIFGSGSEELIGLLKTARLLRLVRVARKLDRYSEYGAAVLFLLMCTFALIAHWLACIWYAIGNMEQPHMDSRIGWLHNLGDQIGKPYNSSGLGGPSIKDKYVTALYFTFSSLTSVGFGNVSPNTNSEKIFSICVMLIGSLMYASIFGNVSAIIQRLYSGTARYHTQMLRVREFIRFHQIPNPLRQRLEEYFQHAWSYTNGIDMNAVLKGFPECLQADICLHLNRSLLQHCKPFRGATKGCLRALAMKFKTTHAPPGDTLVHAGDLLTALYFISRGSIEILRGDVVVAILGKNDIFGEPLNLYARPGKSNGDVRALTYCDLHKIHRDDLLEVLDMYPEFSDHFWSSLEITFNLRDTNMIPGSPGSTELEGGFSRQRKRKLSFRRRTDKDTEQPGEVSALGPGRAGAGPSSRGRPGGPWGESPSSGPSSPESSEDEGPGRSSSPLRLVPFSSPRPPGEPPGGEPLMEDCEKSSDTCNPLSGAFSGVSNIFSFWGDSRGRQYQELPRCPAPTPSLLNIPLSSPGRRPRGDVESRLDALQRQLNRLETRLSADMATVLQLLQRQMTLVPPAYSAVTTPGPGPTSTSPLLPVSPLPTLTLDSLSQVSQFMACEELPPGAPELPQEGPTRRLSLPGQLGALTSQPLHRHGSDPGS

With `COc1ccc2c(c1)CCN(CCCCc1ccc([11CH3])cc1)CC2O` (racemic) [^11C-NR2B-Me] the logD7.4 ([1]; 1-octanol / sodium phosphate buffer pH 7.4, room temperature) was 3.27, the “pKa (apparent)” value [2] was 5.04 ± 0.01 and the “time stable in PBS (10 mM)” value [3] was “at least 2.5 hours”. For the same molecule, the “radioligand remaining in solution (no adsorption to glass test tubes)” value ([3]; PBS 10 mM) was 98.1 ± 0.5%, the “conversion into radiometabolite in brain homogenate” value ([4]; rat brain homogenate) was “less than 0.5%” and the “In vitro stability, plasma” value ([4]; rat plasma, 37 °C, 30 min) was 70.3%. For the same molecule, the “single less lipophilic radiometabolite detected in rat plasma in vitro” value ([4]; rat plasma, 37 °C, 30 min) was “about 30%”, the “Ex vivo stability, brain (unchanged radioligand as % of radioactivity)” value ([5]; rat brain, 30 min after intravenous injection) was 99.5% and > 99% and the “Ex vivo stability, plasma (unchanged radioligand as % of radioactivity)” value ([5]; rat plasma, 30 min after intravenous injection) was 46.2%. For the same molecule, the “Radioactivity conc., brain” value [5, 12] was 4.1 SUV, the “Radioactivity conc., plasma” value [5, 12] was 0.04 SUV and the “Radioactivity conc., whole blood” value [5, 12] was 0.300 SUV. The “Tissue to plasma radioactivity ratio, brain” value [5, 12] was 103, the “Tissue to plasma radioactivity ratio, plasma” value [5, 12] was 1.0 and the “Tissue to plasma radioactivity ratio, whole blood” value [5, 12] was 7.5. For the same molecule, the “stability in human brain homogenate” value [6] was 99.5%, the “stability in human plasma” value [6] was 100% and the “human plasma free fraction (fp)” value [7] was 1.16% ± 0.14. For the same molecule, the “radioactivity in brain regions at 90 min as % of peak values after pre-block” value (GluN2B receptors [8]) was “about 10%”.

For `Cc1ccc(CC2(O)CCN(CCOc3ccc(O)cc3)CC2)cc1` [CO101,244], the ED50 (GluN2B receptors [9]) is given as 0.041 µmol/kg, the Ki (GluN2B) is given as 43 nM and the “ED50 in rat whole brain in vivo ^11C-(S)-NR2B-SMe” value (GluN2B receptors [10]) is given as 74 nmol/kg.

In the case of `COc1ccc2c(c1)CCN(CCCCc1ccc(C)cc1)CC2O` (stereo not shown) [NR2B-Me, 7-methoxy-3-(4-(p-tolyl)butyl)-2,3,4,5-tetrahydro-1H-benzo[d]azepin-1-ol], the inhibition at 10 µM (guinea pig σ1 receptor) is reported as 89.7%, the inhibition at 10 µM (PC12 cell σ2 receptors) is reported as 90.7% and the σ2 inhibition (PC12 cell σ2 receptors; 10 µM) is reported as 91%. For the same molecule, the “inhibition of reference radioligand binding, calcium channel” value (calcium channel) was 39.6%, the inhibition at 10 µM (hERG channel) was 61.7% and the “inhibition of reference radioligand binding, numerous other binding sites and receptors” value [11] was “only weakly inhibited”. It also gave a logD ([1]; 1-octanol/sodium phosphate buffer, pH 7.4, Table 1, text gives this value as measured logD7.4, read-out: cLogD7.4) of 3.27 and a pKa ([2]; cyclohexane/sodium phosphate buffer, read-out: pKa (apparent)) of 5.04.

In the case of `C[C@@H](CN1CCC(Cc2ccccc2)CC1)[C@@H](O)c1ccc(O)cc1` [Ro-25-6981], the Ki (GluN2B) is given as 9 nM.
